Reference: patent publication US20230218558A1, “NOVEL THERAPEUTIC USE OF PLEUROMUTILINS” (priority 2020, published 2023)
≈ marks a conversion by molar mass, not a printed value. Like-named read-outs stand apart in the source and are kept apart here.

Assays:
Huh7 cells = test: Cell viability, Huh7 cells, XTT
[1] = tested on: human rhinovirus strain HRV16 strain 11757; test: Inhibition of virus-induced CPE, human rhinovirus in H1-HeLa cells; type: cell-based; conditions: Example 9, rhinovirus HRV1611757, 4 h pretreatment, MOI 0.0005
Procedure: Cell viability determination as well as EC50 and TC50 calculations were performed as described in Examples 1 and 3.

[2] = tested on: influenza virus strain A/PR/8/34; test: Inhibition of virus-induced CPE, influenza virus in MDCK cells; type: cell-based
[3] = tested on: influenza A/Puerto Rico/8/34 (H1N1); type: in vivo, BALB/c mice; conditions: for effect on bodyweight / bodyweight loss: SC, investigated doses, FIG. 7A; for lung viral titre (TCID50 on MDCK cells): Day 3 and Day 6, Lefamulin at both doses, compared with vehicle treated control
MDCK cells = conditions: Example 10; for CC50: read-out: TC50, MDCK cells
HeLa cells = test: Cell viability, HeLa cells, XTT; conditions: read-out: TC50, Example 6
HEp2 cells = test: Cell viability of uninfected drug control wells, HEp2 cells, XTT; conditions: Example 3
MRC-5 cells [4] = test: Cell viability of uninfected drug control wells, MRC-5 cells, XTT; conditions: Example 1; for cytotoxic effect on the viability of the cell control: concentration 10 μM (b103 prints 10 M for Lefamulin); for cytotoxic effect: concentration 50 μM
[5] = tested on: influenza A virus, porcine reproductive and respiratory syndrome virus (PRRSV) type 1 and 2; conditions: WO 2009/106839; 4 hours post inoculation; cited from earlier work
MRC-5 cells [6] = conditions: human
[7] = tested on: influenza A virus strain (PR8); conditions: concentration of 2 mg/mL; cited from earlier work
polio virus = conditions: cited from earlier work
[8] = tested on: herpes simplex type 1 (HSV-1) virus; conditions: cited from earlier work
[9] = tested on: vesicular stomatitis virus (VSV); conditions: cited from earlier work
[10] = tested on: Measles virus strain Edmonston; test: microbe, parasite or virus in culture; type: cell-based; conditions: Measles morbillivirus, HeLa
[11] = read-out: TC50, Example 8, Zika experiment
[12] = high dose: 105 mg/kg/day SC in three injections until day 3, then 70 mg/kg twice daily

## CC(C)OC(=O)[C@H](C)N[P@](=O)(OC[C@H]1O[C@@H](n2ccc(=O)[nH]c2=O)[C@](C)(F)[C@@H]1O)Oc1ccccc1 [Sofosbuvir]
Huh7 cells; [11]
  CC50: > 10 µM

## C=C[C@]1(C)C[C@@H](OC(=O)CS[C@@H]2CC[C@@H](N)C[C@H]2O)[C@]2(C)C(C)CC[C@]3(CCC(=O)[C@H]32)[C@@H](C)[C@@H]1O (stereo partly drawn) [Lefamulin, 14-O-{[(1R, 2R, 4R)-4-amino-2-hydroxy-cyclohexylsulfanyl]-acetyl}-mutilin]
[1]
  EC50: 9.34 µM
[2]
  EC50: > 23.8 µM
[3]; BALB/c mice
  effect on bodyweight / bodyweight loss: did not have a significant effect
[3]
  lung viral titre (TCID50 on MDCK cells): reduced lung viral titres
[3]; [12]
  clinical scores compared to vehicle: increase in clinical scores
  survival compared to vehicle: decrease in survival
[3]; high dose, Day 6 lungs, compared to vehicle
  bronchial degeneration and alveolar inflammation (histopathology): significant reduction
[3]; high dose, Day 6 lungs, compared to vehicle treated control
  overall histopathology score: overall significant reduction
[3]; lower dose: 35 mg/kg SC twice daily (70 mg/kg/day), until day 6
  survival: 90%
MDCK cells
  concentrations cytotoxic to MDCK cells: greater than 23 μM
  CC50: 23.8 µM
HeLa cells
  CC50: 72.7 µM
Huh7 cells; read-out: TC50, Example 7, Dengue experiment
  CC50: 23.3 µM
Huh7 cells; [11]
  CC50: 23.4 µM
HEp2 cells; concentration 100 μM
  cytotoxic effect: cytotoxic effect
HEp2 cells; concentrations 10 μM and 50 μM
  cytotoxic effect on the viability of the cell control: no cytotoxic effect
MRC-5 cells [4]
  cytotoxic effect on the viability of the cell control: no cytotoxic effect
  cytotoxic effect: cytotoxic effect
MRC-5 cells [4]; uninfected MRC-5 cells, 6 days
  TC50: 55.3 µM

## C=C[C@]1(C)C[C@@H](OC(=O)CSC(C)(C)CNC(=O)[C@H](N)C(C)C)[C@]2(C)[C@H](C)CC[C@]3(CCC(=O)[C@H]32)[C@@H](C)[C@@H]1O [Valnemulin]
[5]
  antiviral activity: did not exhibit antiviral activity

## CCOC(=O)C1=C[C@@H](OC(CC)CC)[C@H](NC(C)=O)[C@@H](N)C1 [Oseltamivir]
[2]
  EC50: 0.06 µM
[3]; BALB/c mice
  effect on bodyweight / bodyweight loss: reduction
[3]; BALB/c mice, positive control treatment, FIG. 7B
  clinical scores: reduction
[3]
  lung viral titre (TCID50 on MDCK cells): reduced lung viral titres
MDCK cells
  CC50: > 200 µM

## CCC(CC)COC(=O)[C@H](C)N[P@](=O)(OC[C@H]1O[C@@](C#N)(c2ccc3c(N)ncnn23)[C@H](O)[C@@H]1O)Oc1ccccc1 [Remdesivir]
MRC-5 cells [6]
  CC50: > 5 µM

## C=C[C@]1(C)C[C@@H](OC(=O)CSCCN(CC)CC)[C@]2(C)[C@H](C)CC[C@]3(CCC(=O)[C@H]32)[C@@H](C)[C@@H]1O [Tiamulin]
MRC-5 cells [6]; 6 days
  CC50: 62.9 µM
HEp2 cells; concentration 10 μM
  viability: 84%
HEp2 cells; concentration 50 μM
  viability: 70.0%
MRC-5 cells [4]
  cytotoxic effect on the viability of the cell control: no cytotoxic effect was observed
  cytotoxic effect: a cytotoxic effect was observed

## C=C[C@]1(C)C[C@@H](OC(=O)CO)[C@]2(C)[C@H](C)CC[C@]3(CCC(=O)[C@H]32)[C@@H](C)[C@@H]1O [Pleuromutilin]
[7]
  antiviral activity: antiviral activity
Polio virus
  antiviral activity: did not show antiviral activity
[8]
  concentration that conferred a 50% protection of the cytopathic effect induced by HSV-1 (CPE50): 15 µg/mL
[8]; read-out: concentration that conferred a 50% protection of the cytopathic effect induced by HSV-1 (CPE50)
  EC50: 40 µM
[9]
  activity against vesicular stomatitis virus: activity

## NC(=O)c1ncn([C@@H]2O[C@H](CO)[C@@H](O)[C@H]2O)n1 [Ribavirin]
[10]
  EC50: 1.88 µg/mL (≈ 7.7 µM)

## CCOC(=O)/C=C/[C@H](C[C@@H]1CCNC1=O)NC(=O)[C@@H](CC(=O)[C@@H](NC(=O)c1cc(C)on1)C(C)C)Cc1ccc(F)cc1 [Rupintrivir]
[1]
  EC50: 0.0049 µM
